According to US20230075856A1, “CYCLIC SULFAMIDE COMPOUNDS FOR TREATMENT OF HBV” (Assembly Biosciences, Inc., priority 2018, published 2023):
Where two headings read alike, the source gives them in different places.

Test system: HBV viral load production from HepAD38 cells
Assay: Viral production from HepAD38 cells: viral load in supernatant by qPCR of the HBV core sequence
Type: cell-based
Details: 5 days incubation, qPCR of supernatant HBV DNA vs DMSO control, read-out: viral load lowering EC50 (Activity)
How it was run: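 Viral load was measured by qPCR of the HBV core region in supernatant, quantified against DNA standards and compared with DMSO wells. Cells (50,000/well, tetracycline withdrawn, 2% FBS) received compound from 10 μM final for 5 days; EC50 from four-parameter nonlinear regression.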

[1] = Hepatitis B virus, HePAD38, 120 h

SMILES	EC50	EC50 [1]
Cc1cn(-c2ccc(F)cc2F)nc1CNC(=O)C1CC(C(=O)Nc2ccc(F)c(Cl)c2)N(C)S(=O)(=O)N1 (single isomer, unassigned) [1144-ISOMER-B, N3-(3-chloro-4-fluoro-phenyl)-N5-[[1-(2,4-difluorophenyl)-4-methyl-pyrazol-3-yl]methyl]-2-methyl-1,1-dioxo-1,2,6-thiadiazinane-3,5-dicarboxamide]	100 to 10000 nM	
CN1C(C(=O)Nc2ccc(F)c(Cl)c2)CC(C(=O)NCc2cn(-c3ccccc3)cn2)NS1(=O)=O (single isomer, unassigned) [1145-ISOMER-A, N3-(3-chloro-4-fluoro-phenyl)-2-methyl-1,1-dioxo-N5-[(1-phenylimidazol-4-yl)methyl]-1,2,6-thiadiazinane-3,5-dicarboxamide]		< 50 nM
CN1C(C(=O)Nc2ccc(F)c(Cl)c2)CC(C(=O)NCc2cn(-c3ccccc3)cn2)NS1(=O)=O (single isomer, unassigned) [1145-ISOMER-B, N3-(3-chloro-4-fluoro-phenyl)-2-methyl-1,1-dioxo-N5-[(1-phenylimidazol-4-yl)methyl]-1,2,6-thiadiazinane-3,5-dicarboxamide]	100 to 10000 nM	
CN1C(C(=O)Nc2ccc(F)c(Cl)c2)CC(C(=O)NCc2cc(-c3ccccc3)on2)NS1(=O)=O (single isomer, unassigned) [1149-ISOMER-A, N3-(3-chloro-4-fluoro-phenyl)-2-methyl-1,1-dioxo-N5-[(5-phenylisoxazol-3-yl)methyl]-1,2,6-thiadiazinane-3,5-dicarboxamide]		< 50 nM
Cc1c(CNC(=O)C2CC(C(=O)Nc3ccc(F)c(Cl)c3)N(C)S(=O)(=O)N2)noc1-c1ccccc1 (single isomer, unassigned) [1150-ISOMER-A, N3-(3-chloro-4-fluoro-phenyl)-2-methyl-N5-[(4-methyl-5-phenyl-isoxazol-3-yl)methyl]-1,1-dioxo-1,2,6-thiadiazinane-3,5-dicarboxamide]		< 50 nM
Cc1c(CNC(=O)C2CC(C(=O)Nc3ccc(F)c(Cl)c3)N(C)S(=O)(=O)N2)noc1-c1ccccc1 (single isomer, unassigned) [1150-ISOMER-B, N3-(3-chloro-4-fluoro-phenyl)-2-methyl-N5-[(4-methyl-5-phenyl-isoxazol-3-yl)methyl]-1,1-dioxo-1,2,6-thiadiazinane-3,5-dicarboxamide]	100 to 10000 nM	
CN1C(C(=O)Nc2ccc(F)c(Cl)c2)CC(C(=O)NCc2cc(-c3ccc(F)cc3)n(C)n2)NS1(=O)=O (single isomer, unassigned) [1151-ISOMER-A, N3-(3-chloro-4-fluoro-phenyl)-N5-[[5-(4-fluorophenyl)-1-methyl-pyrazol-3-yl]methyl]-2-methyl-1,1-dioxo-1,2,6-thiadiazinane-3,5-dicarboxamide]		< 50 nM
CN1C(C(=O)Nc2ccc(F)c(Cl)c2)CC(C(=O)NCc2cc(-c3ccc(F)cc3)n(C)n2)NS1(=O)=O (single isomer, unassigned) [1151-ISOMER-B, N3-(3-chloro-4-fluoro-phenyl)-N5-[[5-(4-fluorophenyl)-1-methyl-pyrazol-3-yl]methyl]-2-methyl-1,1-dioxo-1,2,6-thiadiazinane-3,5-dicarboxamide]	100 to 10000 nM	
CN1C(C(=O)Nc2ccc(F)c(Cl)c2)CC(C(=O)NCc2ncc(-c3ccc(F)cc3)s2)NS1(=O)=O (single isomer, unassigned) [1153-ISOMER-A, N3-(3-chloro-4-fluoro-phenyl)-N5-[[5-(4-fluorophenyl)thiazol-2-yl]methyl]-2-methyl-1,1-dioxo-1,2,6-thiadiazinane-3,5-dicarboxamide]		< 50 nM
CN1C(C(=O)Nc2ccc(F)c(Cl)c2)CC(C(=O)NCc2ncc(-c3ccc(F)cc3)s2)NS1(=O)=O (single isomer, unassigned) [1153-ISOMER-B, N3-(3-chloro-4-fluoro-phenyl)-N5-[[5-(4-fluorophenyl)thiazol-2-yl]methyl]-2-methyl-1,1-dioxo-1,2,6-thiadiazinane-3,5-dicarboxamide]	100 to 10000 nM	
